Reference: PubChem BioAssay (NCI)
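Protocol summary: plate cells (96-well), add compound at 5 concentrations, incubate 48 h, interpolate endpoints linearly. GI50 is the concentration that inhibits growth by half. TGI denotes the concentration required for complete inhibition of growth.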

What was measured:
Test in all cases: DTP human tumour cell line panel, 48 h
BT-549 breast = system: BT-549 breast
NCI-H522 lung = system: NCI-H522 lung
NCI-H226 lung = system: NCI-H226 lung
UACC-62 melanoma = system: UACC-62 melanoma
U251 CNS = system: U251 CNS
EKVX NSCLC = system: EKVX NSCLC
HCC-2998 colon = system: HCC-2998 colon
COLO 205 colon = system: COLO 205 colon
MDA-MB-231 breast = system: MDA-MB-231 breast
NCI-H23 lung = system: NCI-H23 lung
CAKI-1 renal = system: CAKI-1 renal
HOP-62 NSCLC = system: HOP-62 NSCLC
UO-31 renal = system: UO-31 renal
SK-MEL-28 melanoma = system: SK-MEL-28 melanoma
SF-539 CNS = system: SF-539 CNS
LOX IMVI melanoma = system: LOX IMVI melanoma
DU-145 prostate = system: DU-145 prostate
MALME-3M melanoma = system: MALME-3M melanoma
SR leukemia = system: SR leukemia
KM12 colon = system: KM12 colon
SK-OV-3 ovarian = system: SK-OV-3 ovarian
IGROV1 ovarian = system: IGROV1 ovarian
OVCAR-3 ovarian = system: OVCAR-3 ovarian
OVCAR-4 ovarian = system: OVCAR-4 ovarian
M14 melanoma = system: M14 melanoma
SF-268 CNS = system: SF-268 CNS
RPMI-8226 leukemia = system: RPMI-8226 leukemia
K-562 leukemia = system: K-562 leukemia
NCI-H460 lung = system: NCI-H460 lung
HT29 colon = system: HT29 colon
786-0 renal = system: 786-0 renal
MCF7 breast = system: MCF7 breast
SK-MEL-2 melanoma = system: SK-MEL-2 melanoma
MDA-MB-435 = system: MDA-MB-435
OVCAR-5 ovarian = system: OVCAR-5 ovarian
SN12C renal = system: SN12C renal
SW-620 colon = system: SW-620 colon
PC-3 prostate = system: PC-3 prostate
OVCAR-8 ovarian = system: OVCAR-8 ovarian
TK-10 renal = system: TK-10 renal
CCRF-CEM leukemia = system: CCRF-CEM leukemia
ACHN renal = system: ACHN renal
RXF 393 renal = system: RXF 393 renal
SK-MEL-5 melanoma = system: SK-MEL-5 melanoma
HCT-116 colon = system: HCT-116 colon
A549 NSCLC = system: A549 NSCLC
HCT-15 colon = system: HCT-15 colon
MOLT-4 leukemia = system: MOLT-4 leukemia
SNB-19 CNS = system: SNB-19 CNS
MDA-MB-468 breast = system: MDA-MB-468 breast
T-47D breast = system: T-47D breast
A498 renal = system: A498 renal
SF-295 CNS = system: SF-295 CNS
HOP-92 NSCLC = system: HOP-92 NSCLC

Q: Which results are given for Cc1ccccc1Nc1nnc(-c2c[nH]c3ccccc23)o1?
A: GI50 (BT-549 breast): 3.7 µM; TGI (BT-549 breast): > 100 µM; GI50 (NCI-H522 lung): 0.85 µM; TGI (NCI-H522 lung): 6.34 µM; GI50 (NCI-H226 lung): 4.44 µM; TGI (NCI-H226 lung): > 100 µM; GI50 (UACC-62 melanoma): 1.13 µM; TGI (UACC-62 melanoma): > 100 µM; GI50 (U251 CNS): 3.18 µM; TGI (U251 CNS): > 100 µM; GI50 (EKVX NSCLC): 4.48 µM; TGI (EKVX NSCLC): > 100 µM; GI50 (HCC-2998 colon): 3.3 µM; TGI (HCC-2998 colon): 15.9 µM; GI50 (COLO 205 colon): 2.22 µM; TGI (COLO 205 colon): 16.7 µM; GI50 (MDA-MB-231 breast): 3.68 µM; TGI (MDA-MB-231 breast): > 100 µM; GI50 (NCI-H23 lung): 3.38 µM; TGI (NCI-H23 lung): > 100 µM; GI50 (CAKI-1 renal): 0.897 µM; TGI (CAKI-1 renal): > 100 µM; GI50 (HOP-62 NSCLC): 3.6 µM; TGI (HOP-62 NSCLC): > 100 µM; GI50 (UO-31 renal): 1.88 µM; TGI (UO-31 renal): > 100 µM; GI50 (SK-MEL-28 melanoma): 3.91 µM; TGI (SK-MEL-28 melanoma): > 100 µM; GI50 (SF-539 CNS): 1.9 µM; TGI (SF-539 CNS): 5.22 µM; GI50 (LOX IMVI melanoma): 2.96 µM; TGI (LOX IMVI melanoma): > 100 µM; GI50 (DU-145 prostate): 5.47 µM; TGI (DU-145 prostate): > 100 µM; GI50 (MALME-3M melanoma): 0.869 µM; TGI (MALME-3M melanoma): > 100 µM; GI50 (SR leukemia): 0.527 µM; TGI (SR leukemia): > 100 µM; GI50 (KM12 colon): 4.6 µM; TGI (KM12 colon): > 100 µM; GI50 (SK-OV-3 ovarian): 3.52 µM; TGI (SK-OV-3 ovarian): > 100 µM; GI50 (IGROV1 ovarian): 2.32 µM; TGI (IGROV1 ovarian): > 100 µM; GI50 (OVCAR-3 ovarian): 0.889 µM; TGI (OVCAR-3 ovarian): > 100 µM; GI50 (OVCAR-4 ovarian): 8.06 µM; TGI (OVCAR-4 ovarian): > 100 µM; GI50 (M14 melanoma): 1.32 µM; TGI (M14 melanoma): > 100 µM; GI50 (SF-268 CNS): 5.15 µM; TGI (SF-268 CNS): > 100 µM; GI50 (RPMI-8226 leukemia): 3.03 µM; TGI (RPMI-8226 leukemia): > 100 µM; GI50 (K-562 leukemia): 0.531 µM; TGI (K-562 leukemia): > 100 µM; GI50 (NCI-H460 lung): 2.88 µM; TGI (NCI-H460 lung): > 100 µM; GI50 (HT29 colon): 2.13 µM; TGI (HT29 colon): 11.6 µM; GI50 (786-0 renal): 5.58 µM; TGI (786-0 renal): > 100 µM; GI50 (MCF7 breast): 3.02 µM; TGI (MCF7 breast): > 100 µM; GI50 (SK-MEL-2 melanoma): 1.16 µM; TGI (SK-MEL-2 melanoma): 4.4 µM; GI50 (MDA-MB-435): 0.298 µM; TGI (MDA-MB-435): 1.13 µM; GI50 (OVCAR-5 ovarian): 4.13 µM; TGI (OVCAR-5 ovarian): > 100 µM; GI50 (SN12C renal): 3.25 µM; TGI (SN12C renal): > 100 µM; GI50 (SW-620 colon): 0.882 µM; TGI (SW-620 colon): > 100 µM; GI50 (PC-3 prostate): 3.41 µM; TGI (PC-3 prostate): > 100 µM; GI50 (OVCAR-8 ovarian): 3.44 µM; TGI (OVCAR-8 ovarian): > 100 µM; GI50 (TK-10 renal): 7.65 µM; TGI (TK-10 renal): > 100 µM; GI50 (CCRF-CEM leukemia): 2.09 µM; TGI (CCRF-CEM leukemia): > 100 µM; GI50 (ACHN renal): 4.32 µM; TGI (ACHN renal): > 100 µM; GI50 (RXF 393 renal): 2.25 µM; TGI (RXF 393 renal): 9.91 µM; GI50 (SK-MEL-5 melanoma): 2.32 µM; TGI (SK-MEL-5 melanoma): > 100 µM; GI50 (HCT-116 colon): 5.96 µM; TGI (HCT-116 colon): > 100 µM; GI50 (A549 NSCLC): 6.09 µM; TGI (A549 NSCLC): > 100 µM; GI50 (HCT-15 colon): 1.78 µM; TGI (HCT-15 colon): > 100 µM; GI50 (MOLT-4 leukemia): 2.55 µM; TGI (MOLT-4 leukemia): > 100 µM; GI50 (SNB-19 CNS): 3.36 µM; TGI (SNB-19 CNS): > 100 µM; GI50 (MDA-MB-468 breast): 2.21 µM; TGI (MDA-MB-468 breast): 7.14 µM; GI50 (T-47D breast): 12.6 µM; TGI (T-47D breast): > 100 µM; GI50 (A498 renal): > 100 µM; TGI (A498 renal): > 100 µM; GI50 (SF-295 CNS): 0.567 µM; TGI (SF-295 CNS): 6 µM; GI50 (HOP-92 NSCLC): 5.66 µM; TGI (HOP-92 NSCLC): > 100 µM
